A word on the Kd: it is the constant that tells how readily two partners part at equilibrium. The term IC50 denotes the concentration needed to halve the response being measured.

“Also recorded” adds a separate entry of the source. Ends that are not written are not given here.

The values that follow come from article PMC6212398, “Competing protein-protein interactions regulate binding of Hsp27 to its client protein tau” (Nature Communications, 2018).

For data set [1], the system named is K18 tau. Description: 15N K18 HSQC / TROSY-HSQC NMR with unlabeled Hsp27 constructs. The data set is classed as binding, human. The settings on record: 50 µM 15N K18, 100 µM Hsp27 construct (2:1), 10 °C, TROSY titration. As to the method: For ^15N K18 HSQC NMR experiments, all proteins were dialyzed overnight into NMR buffer (25 mM HEPES pH 7.4, 10 mM KCl, 5 mM MgCl2, 1 mM TCEP, 10% (v/v) D2O). Then, samples containing 50 μM ^15N-labeled tau and 50 or 100 μM unlabeled chaperone in NMR buffer were prepared. 2D HSQC spectra were acquired at 10 °C on a Bruker Avance AV800 spectrometer equipped with a cryoprobe. 16 scans were acquired per t1 value and spectral widths of 2100 Hz and 10,416 Hz were used in the ^1H and ^15N dimensions, respectively. Spectra were processed using rNMR and Sparky based on deposited tau assignments (Barre 2013, BioMagResBank accession number 19253). Signal intensity ratios were calculated using Prism, by dividing the intensity of chaperone-bound peaks by intensity of the same peak in the unbound spectra.
The ^15N TROSY HSQC experiments were performed on a Bruker Avance 800 MHz spectrometer equipped with the TXO cryogenic probe at 283 K. The [U-^15N] K18 proteins were dissolved at a concentration of 0.05–0.15 mM in 25 mM Hepes, 10 mM KCl, 5 mM MgCl2, 1 mM TCEP at pH 7.0 and titrated with the Hsp27 proteins in the same buffer. The ^1H–^15N TROSY HSQC experiments were performed with 2048 direct (^1H) and 512 indirect (^15N) points with the spectral width of 16 ppm and 36 ppm, respectively. All NMR spectra were processed by Topspin 3.1, and analyzed with Sparky (Goddard and Kneller, SPARKY 3-NMR Assignment and Integration Software. University of California, San Francisco, CA).

For a further data set, the system named is 0N4R tau. Description: Tau aggregation assay (thioflavin T fluorescence), 0N4R. The settings on record: 10 μM tau, chaperone 1:1 molar ratio (10 μM), heparin 44 µg/mL, 37 °C, Dulbecco's PBS pH 7.4. It counts as biochemical, human. As to the method:
(§1) Aggregation assays were performed as previously described. Briefly, all proteins were dialyzed overnight at 4 °C into assay buffer (Dulbecco’s PBS pH7.4, 2 mM MgCl2, 1 mM DTT). 0N4R or K18 Tau (10 μM) was pre-incubated in the presence/absence of chaperones (5–20 μM) for 30 min at 37 °C. Thioflavin T (Sigma) at a final concentration of 10 μM was added and aggregation was induced by the addition of a freshly prepared heparin sodium salt solution (Santa Cruz) at a final concentration of 44 µg/mL. For non-induced controls, assay buffer was added in place of heparin solution. The aggregation reaction was carried out at 37 °C with continuous shaking and monitored via Thioflavin T fluorescence (excitation = 444 nm, emission = 485 nm, cutoff = 480 nm) in a Spectramax M5 microplate reader (Molecular Devices). Readings were taken every 5 min for a minimum of 24 h. Baseline curves of non-induced controls (three replicates) were subtracted from induced samples (three replicates).

The nature of data set [2]: Thermal shift assay (differential scanning fluorimetry). The data set is classed as physicochemical. The settings on record: DSF, 0.3 mg/mL in 50 mM NaPi pH 7.4, 700 mM NaCl, 50 mM LiCl, SYPRO Orange. As to the method: Samples of Hsp27 (25 µL; 0.3 mg/mL) in DSF buffer (50 mM NaPi pH 7.4, 700 mM NaCl, 50 mM LiCl) with a 5× final concentration of SYPRO Orange (Sigma) were placed into a white 96-well plate with optically clear caps. Melt curves were acquired on a Stratagene Mx300P RT-PCR using the SYPRO filter set. Samples were heated from 25 to 95 °C in 1 °C increments for 2 min, cooled to 25 °C at each cycle, and fluorescence was measured. The melting temperature was determined using a Boltzmann fit in Prism.
In general terms: DSF heats the sample and reads unfolding from a dye or from intrinsic fluorescence.

Data set [3] concerns the target T1, Hsp27 ACD (Homo sapiens, UniProt P04792).
T1 construct: Hsp27 ACD (residues Q80–S176); made in house; host or cells: E. coli BL21 (DE3)
Description: ITC of IPV-derived peptides with purified Hsp27 ACD. The data set is classed as binding. Particulars: Fig. 1d, 25 °C, one-site model; for N (binding stoichiometry): peptide (1 mM) into Hsp27 ACD (100 µM). As to the method: (§2) For experiments with BAG3, proteins were dialyzed overnight against ITC buffer (25 mM Hepes, 5 mM MgCl2, 100 mM KCl, pH 7.5). For experiments with peptides, sHSPs were dialyzed overnight against SEC buffer, and peptides were dissolved in dialysis buffer. Concentrations were determined using BCA assays (Thermo Scientific), and the ITC experiment was performed with a MicroCal ITC200 (GE Healthcare) at 25 °C. In BAG3 experiments, sHSP (200 µM) in the syringe was titrated into a 10 μM cell solution of BAG3 protein. For peptide binding experiments, peptide (1 mM) was titrated into a cell containing Hsp27 proteins (100 µM). Calorimetric parameters were calculated using Origin® 7.0 software and fit with a one-site binding model.

The target of a further data set is T2, Hsp27 WT (Homo sapiens, UniProt P04792).
T2 construct: Vectors for the expression of full-length human Hsp27; made in house; host or cells: E. coli BL21 (DE3)
In words: ITC of optimized IPV peptide with Hsp27 WT. It counts as binding. The settings on record: Fig. 4b, peptide (1 mM) into full-length Hsp27 WT (100 µM), 25 °C, mean ± SEM, minimum of three independent experiments. As to the method:
as §2

The target in the next data set is T3, ΔNTD GPG (Homo sapiens, UniProt P04792, I181G/V183G).
T3 construct: For all other Hsp27 constructs (GPG, ΔNTD consisting of residues 80–205); inferred from the PMCSG7 vector and Ni-NTA purification) (N); made in house; host or cells: E. coli BL21 (DE3)
In words: ITC of optimized IPV peptide with Hsp27 ΔNTD GPG. It counts as binding. The settings on record: Fig. 4b, peptide (1 mM) into ΔNTD GPG (100 µM), 25 °C, mean ± SEM, minimum of three independent experiments. As to the method:
as §2

A further data set concerns the target T4, Hsp27 3D (Homo sapiens, UniProt P04792, S15D/S78D/S82D).
T4 construct: Sample aggregation curves of tau constructs with full-length Hsp27; made in house; host or cells: E. coli BL21 (DE3)
In words: ITC of optimized IPV peptide with Hsp27 3D. The data set is classed as binding. The settings on record: Fig. 4b, peptide (1 mM) into Hsp27 3D (100 µM), 25 °C, mean ± SEM, minimum of three independent experiments. As to the method:
as §2

Data set [4] has as its system K18 tau. Description: Competitive ELISA on immobilized K18 tau saturated with biotin-labelled Hsc70. Also noted: species or system human. The settings on record: Supplementary Figure 3A, binding not saturable, read-out: IC50 (estimated), competition with biotin-labelled Hsc70 for immobilized K18 tau. From the text: B. Hsp27 ACD binding to K18tau cannot be measured by ITC
A. Hsp27 ACD has a weak affinity for tau,by ELISA
C. The interaction is also estimated tobe weak by NMR titration[Competitor], uM
D. NMR titration of VQIVYK peptide into
Supplementary Figure 3. Hsp27 ACD has a weak affinity for K18 tau. (A) K18 tau was immobilized onto ELISA plates and saturated with biotin-labelled, human Hsc70, which shares binding sites with Hsp27 ACD in the MTBRs. Competition with unlabelled Hsc70 (control) or Hsp27 ACD was then carried out. Hsp27 ACD was estimated to have an IC50 > 100 µM. (B) Binding of Hsp27 ACD to K18 tau was not able to be measured by ITC, due to solubility limits. (C) NMR titrations (see Figure S5A) also […]
interaction. CSPs of Hsp27 ACD in the presence of 3.3-fold molar excess of PHF6* peptide (500 µM).
(also on this page, place not known: [Competitor], OD450 tau, K18 tau to be by 4 normalized CSP [((δN/5) +γH ); ppm] 2 0.52 CSP (PPM) titration Hsp27) […]

The test system of data set [5] is K18 tau. Description: Tau aggregation assay (thioflavin T fluorescence), K18. It counts as biochemical, human. The settings on record: 10 μM tau, chaperone 1:1 molar ratio (10 μM), heparin 44 µg/mL, 37 °C, Dulbecco's PBS pH 7.4. As to the method: as §1
The next data set deals with BAG3. Description: Interaction of Hsp27 ACD with BAG3 by FCPIA. Particulars: Supplementary Figure 4. It counts as binding.
The target of data set [6] is T1, Hsp27 ACD. Description: NMR titration of VQIVYK peptide into 1H-15N Hsp27 ACD. The settings on record: 1H-15N ACD spectra, 3.3-fold molar excess of peptide (500 µM), Supplementary Figure 3D. The data set is classed as binding.
[7] abbreviates: Fig. 4a, Boltzmann fit, mean ± SD of three independent experiments.

T1 sequence (P04792 80-176): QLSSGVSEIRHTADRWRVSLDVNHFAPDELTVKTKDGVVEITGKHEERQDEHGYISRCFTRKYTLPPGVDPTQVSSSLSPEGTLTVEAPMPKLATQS
T3 sequence (P04792 80-205 I181G/V183G limits assumed): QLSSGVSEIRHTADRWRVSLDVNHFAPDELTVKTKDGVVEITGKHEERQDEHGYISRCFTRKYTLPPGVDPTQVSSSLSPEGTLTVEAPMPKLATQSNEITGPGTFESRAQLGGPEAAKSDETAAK
T4 sequence (P04792 whole entry S15D/S78D/S82D): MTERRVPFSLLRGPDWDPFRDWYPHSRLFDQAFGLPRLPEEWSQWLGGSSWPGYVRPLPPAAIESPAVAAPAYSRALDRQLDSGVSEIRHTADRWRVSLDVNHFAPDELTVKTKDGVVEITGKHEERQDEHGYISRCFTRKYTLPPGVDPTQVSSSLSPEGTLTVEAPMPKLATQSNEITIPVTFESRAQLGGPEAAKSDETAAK
T2 sequence (P04792 whole entry): as the sequence (P04792 whole entry S15D/S78D/S82D) above, with D15S, D78S, D82S counted along it

As for “3D: pseudo-phosphorylation mutant; S15, S78 and S82 replaced with aspartate”, the “Binding to 15N K18 tau by NMR (peak broadening / CSPs)” value (“Binding … (peak broadening / CSPs)” below) in the data set on K18 tau [1] is listed as “binds to K18’s aggregation motifs”. Besides, the “Effect on aggregation of 0N4R tau (ThT fluorescence)” value (“Effect on aggregation of 0N4R tau” for short) in the data set with 0N4R tau is listed as “retains the ability to prevent tau aggregation”. Further, the TM in data set [2] (Supplementary Figure 8A) was found to be 72.2 ± 0.85 °C.
For EIAIPVTHE [T180A], the “N (binding stoichiometry)” value at Hsp27 ACD [3] stood at 0.65.
Regarding EITIPVTFE [Hsp27 IPV], at Hsp27 ACD [3], the “N (binding stoichiometry)” value amounted to 0.90. For the same substance, the Kd at Hsp27 ACD [3] (peptide (1 mM) titrated into Hsp27 ACD (100 µM), SEC buffer (50 mM sodium phosphate, 100 mM NaCl), mean ± SEM, minimum of three independent experiments, ND = no detectable binding) was above 25 µM.
Turning to EITIPVTHE [Hsp27 IPV H], the results for the Kd entry on Hsp27 WT, at ΔNTD GPG and at Hsp27 3D were “does not bind”, 14.3 µM and above 50 µM, respectively.
On to “GPG: Hsp27 with isoleucine and valine of the IPV mutated to glycine”, for which the “Binding … (peak broadening / CSPs)” value in the data set with K18 tau [1] was “bound to K18”. Further, the TM in data set [2] (setting [7]) turned out to be 66.8 ± 0.3 °C.
For the substance “Hsp27 ACD: α-crystallin domain of human Hsp27 (residues Q80–S176)”, the IC50 in the data set with K18 tau [4] was above 100 µM. In the data set on K18 tau [1], the “Binding … (peak broadening / CSPs)” value is “weak and unsaturable”. In addition, in the data set with K18 tau [5], the “Effect on aggregation of K18 tau (ThT fluorescence)” value (“Effect on aggregation of K18 tau” below) was “no effect”. Also, the “Effect on aggregation of 0N4R tau” value with 0N4R tau is reported as “no effect”.
“Hsp27 X: WT Hsp27 cross-linked with gluteraldehyde”: the “Effect on aggregation of K18 tau” value with K18 tau [5] is given as “severely compromised”. For the same substance, in the data set on 0N4R tau, the “Effect on aggregation of 0N4R tau” value is on record as “severely compromised”.
L157A ACD: Hsp27 ACD mutant L157A: the BAG3 binding result in the data set on BAG3 is listed as “deficient in BAG3 binding”.
In the case of “VQIVYK [PHF6* peptide, 6-mer PHF6* peptide from tau]”, the results for the “Binding to Hsp27 ACD by NMR titration (chemical shift changes)” value on Hsp27 ACD [6] and on Hsp27 ACD [6] (listed as VQIVYK peptide) were “unable to produce saturable chemical shift changes” and “weak interaction; also recorded: weak/no”, respectively.
As to WT: full-length human Hsp27, the “Binding … (peak broadening / CSPs)” value with K18 tau [1] was “does not”; with K18 tau [1] (listed as full-length Hsp27), “no broadening or CSPs”. Moreover, the “Effect on aggregation of K18 tau” value in the data set with K18 tau [5] was “prevents aggregation”. For the same substance, the “Effect on aggregation of 0N4R tau” value in the data set on 0N4R tau was “prevents aggregation”. Besides, the TM in data set [2] (setting [7]) was determined as 73.1 ± 1.1 °C; in [2] (Supplementary Figure 8A), 72.2 ± 1.0 °C.
“ΔNTD: Hsp27 with NTD deleted, residues 80–205”: in the data set on K18 tau [5], the “Effect on aggregation of K18 tau” value is listed as “ablated Hsp27’s ability to delay tau aggregation”. The “Effect on aggregation of 0N4R tau” value in the data set on 0N4R tau is reported as “ablated Hsp27’s ability to delay tau aggregation”.
